Among the data in ChEMBL document CHEMBL1151126, “Studies on inhibitors of skin tumor promotion, III. Inhibitory effects of isoflavonoids from Wisteria brachybotrys on Epstein-Barr virus activation” (J Nat Prod, 1988) are Activity, inhibition and viability values, retold here.

Activity calls are given as the source filed them. The rule behind the calls is not given here.

Data set [1] is filed under the species Mus musculus. Nature of the data set: Displacement of [3H]TPA from TPA receptor in ICR mouse epidermal particulate fraction by Me2CO filter method. For orientation: Displacement assays read how much labelled ligand stays bound in the presence of the test substance.
Data set [2] has as its system HeLa. Nature of the data set: Inhibition of TPA-stimulated [32P] incorporation into phospholipids in human HeLa cells at 50 uM after 1 hr. It is filed as functional.
Data set [3] concerns Raji. Nature of the data set: Inhibition of 12-O-tetradecanoylphorbol-13-acetate-induced EBV-early antigen activation in human Raji cells assessed as early antigen induction at 10000 molar ratio after 48 hrs by indirect immunofluorescence technique relative to TPA. Type of data set: cell-based. The arrangement: scale not given: the % may be the effect or the level left. The note with it: human gammaherpesvirus 4.

Data set [4] deals with Raji. The experiment in a line: Inhibition of 12-O-tetradecanoylphorbol-13-acetate-induced EBV-early antigen activation in human Raji cells assessed as early antigen induction at 1000 molar ratio after 48 hrs by indirect immunofluorescence technique relative to TPA. It is filed as cell-based. The arrangement: scale not given: the % may be the effect or the level left. The note with it: human gammaherpesvirus 4.

For data set [5], the system named is Raji. The experiment in a line: Inhibition of 12-O-tetradecanoylphorbol-13-acetate-induced EBV-early antigen activation in human Raji cells assessed as early antigen induction at 100 molar ratio after 48 hrs by indirect immunofluorescence technique relative to TPA. Also on record: scale not given: the % may be the effect or the level left. Type of data set: cell-based. The note with it: human gammaherpesvirus 4.

Data set [6] has as its system Raji. Nature of the data set: Inhibition of 12-O-tetradecanoylphorbol-13-acetate-induced EBV-early antigen activation in human Raji cells assessed as early antigen induction at 10 molar ratio after 48 hrs by indirect immunofluorescence technique relative to TPA. Also on record: scale not given: the % may be the effect or the level left. The note with it: human gammaherpesvirus 4. Type of data set: cell-based.

The nature of data set [7]: Cytotoxicity against human Raji cells assessed as cell viability at 10000 molar ratio. It is filed as cell-based. The note with it: read-out: Activity.
Data set [8] in a line: Cytotoxicity against human Raji cells assessed as cell viability at 1000 molar ratio. It is filed as cell-based. The note with it: read-out: Activity.
Data set [9] can be described thus: Cytotoxicity against human Raji cells assessed as cell viability at 100 molar ratio. The note with it: read-out: Activity. Type of data set: cell-based.
A short description of data set [10]: Cytotoxicity against human Raji cells assessed as cell viability at 10 molar ratio. It is filed as cell-based. As to conditions: read-out: Activity.
Data set [11] has as its system Raji. Nature of the data set: Inhibition of EBV-early antigen activation in human Raji cells assessed as early antigen activation at 320 nM. It is filed as cell-based. Also on record: scale not given: the % may be the effect or the level left. The note with it: human gammaherpesvirus 4.
In data set [12] the test system is HeLa. Nature of the data set: Cytotoxicity in human HeLa cells assessed as decrease in cell number at 50 uM after 1 hr. It is filed as cell-based.
Data set [13] relates to HeLa. The experiment in a line: Cytotoxicity in human HeLa cells assessed as effect on cell viability at 50 uM after 1 hr. It is filed as cell-based.

For orientation: inhibition means the change of the read-out against control, counted positive when it falls.

With `CCCCCCCCCCCCCC(=O)O[C@@H]1[C@@H](C)[C@@]2(O)[C@@H](C=C(CO)C[C@]3(O)C(=O)C(C)=C[C@@H]23)[C@@H]2C(C)(C)[C@]12OC(C)=O`, the outcome in data set [1] was Active.
In the case of `COc1ccc(-c2coc3cc(OC(C)=O)ccc3c2=O)cc1`, testing at 50 µM in data set [2] gave an inhibition of 40.2%. For the same molecule, the Activity in data set [3] is 0%; in [4], 15.2%; in [5] it was 95.2%; in data set [6], 100%; in data set [11], 0%; in [12] it was “Non-toxic”. Moreover, the Activity entry in [13] is listed as “Non-toxic”. Further, the viability at 10000 molar ratio in data set [7] is 80%. In [8], the viability at 1000 molar ratio was > 80%. Besides, the viability at 100 molar ratio in data set [9] amounted to 100%. Besides, the viability at 10 molar ratio in data set [10] stood at 100%.
As for `COc1ccc(-c2coc3cc(O)ccc3c2=O)cc1` [FORMONONETIN], the inhibition at 50 µM in [2] was determined as 34.5%. For the same molecule, the Activity was 0% in data set [3]; 63.6% in [4]; 92.6% in data set [5]; 100% in data set [6]; 0% in data set [11]; “Non-toxic” in [12]. In data set [13], the Activity result is “Non-toxic”. In addition, the viability at 10000 molar ratio in data set [7] is 20%. The viability at 1000 molar ratio in data set [8] was > 80%. For the same molecule, in data set [9], the viability at 100 molar ratio is > 80%. For the same molecule, the viability at 10 molar ratio in data set [10] stood at 100%. For the same molecule, the result in data set [1] was inactive.
`COc1ccc(-c2coc3cc(O[C@@H]4O[C@H](CO)[C@@H](O)[C@H](O)[C@H]4O)c(OC)cc3c2=O)cc1` [WISTIN] came in with an inhibition at 50 µM in data set [2] of 0%. For the same molecule, the Activity was 15.2% in data set [3]; 78.5% in data set [4]; 86.6% in data set [5]; 100% in [6]; 0% in [11]; “Non-toxic” in [12]. The Activity entry in data set [13] is reported as “Non-toxic”. For the same molecule, the viability at 10000 molar ratio in [7] came to 50%. The viability at 1000 molar ratio in data set [8] was > 80%. In [9], the viability at 100 molar ratio is > 80%. Moreover, the viability at 10 molar ratio in data set [10] came out at 100%.
In [2], `COc1ccc(-c2coc3cc(O[C@@H]4O[C@H](CO)[C@@H](O)[C@H](O)[C@H]4O)ccc3c2=O)cc1` [ONONIN] displayed an inhibition at 50 µM of 12.3%. For the same molecule, the Activity is 39.3% in data set [3]; 76% in [4]; 100% in [5]; 100% in [6]; 2% in [11]; “Non-toxic” in [12]. Moreover, the Activity result in data set [13] is listed as “Non-toxic”. For the same molecule, the viability at 10000 molar ratio in data set [7] came to 80%. For the same molecule, the viability at 1000 molar ratio in [8] is > 80%. Further, the viability at 100 molar ratio in [9] was determined as 100%. For the same molecule, in [10], the viability at 10 molar ratio is 100%.
The molecule `COc1ccc(-c2coc3cc(OC(C)=O)c(OC)cc3c2=O)cc1` returned an inhibition at 50 µM in data set [2] of 33.9%. In addition, the Activity is 0% in data set [3]; 6% in [4]; 42.3% in data set [5]; 72.7% in [6]; 2.1% in data set [11]; “Non-toxic” in data set [12]. In data set [13], the Activity result is on record as “Non-toxic”. In data set [7], the viability at 10000 molar ratio was 80%. Besides, the viability at 1000 molar ratio in data set [8] was > 80%. In data set [9], the viability at 100 molar ratio was > 80%. Besides, in data set [10], the viability at 10 molar ratio is 100%. In data set [1], the result was inactive.
In turn, `COc1ccc(-c2coc3cc(O)c(OC)cc3c2=O)cc1` [CASTANIN] had an inhibition at 50 µM in data set [2] of 16.4%. Further, the Activity in data set [3] was 0%; in data set [4], 36.4%; in data set [5], 75.8%; in data set [6] it was 100%; in [11], 34%; in [12], “Non-toxic”. Moreover, the Activity entry in data set [13] is on record as “Non-toxic”. In data set [7], the viability at 10000 molar ratio amounted to 80%. In data set [8], the viability at 1000 molar ratio was > 80%. The viability at 100 molar ratio in data set [9] is > 80%. Besides, the viability at 10 molar ratio in data set [10] amounted to 100%. For the same molecule, the result in [1] was inactive.
For `C=C[C@]1(C)CC[C@@](C)(C(C)C)c2cc3c4c(c[nH]c4c21)C[C@@H](CO)NC(=O)[C@H](C(C)C)N3C`, in [1], the outcome was Active.
